Assay results published in patent US7417030B2, “Indazole peptidomimetics as thrombin receptor antagonists” (Ortho-McNeil Pharmaceutical, Inc., priority 1999, dated 2008).

How the values were obtained:
[1] = target: T1, Thrombin receptor (PAR-1) (Homo sapiens, UniProt P25116); assay: In vitro thrombin receptor binding assay; settings: CHRF membranes; tritiated 721-40 (Ser-pFPhe-Har-Leu-Har-Lys-Tyr-NH2) radioligand; read-out: IC50 (μM) Thr Recptr Bdg
T1 construct: CHRF membranes (Jones, Biochim. Biophys. Acta 1992, 1136, 272) are thawed from −70° C; endogenous in cells; host or cells: CHRF cell membranes
T1 sequence (P25116 22-425): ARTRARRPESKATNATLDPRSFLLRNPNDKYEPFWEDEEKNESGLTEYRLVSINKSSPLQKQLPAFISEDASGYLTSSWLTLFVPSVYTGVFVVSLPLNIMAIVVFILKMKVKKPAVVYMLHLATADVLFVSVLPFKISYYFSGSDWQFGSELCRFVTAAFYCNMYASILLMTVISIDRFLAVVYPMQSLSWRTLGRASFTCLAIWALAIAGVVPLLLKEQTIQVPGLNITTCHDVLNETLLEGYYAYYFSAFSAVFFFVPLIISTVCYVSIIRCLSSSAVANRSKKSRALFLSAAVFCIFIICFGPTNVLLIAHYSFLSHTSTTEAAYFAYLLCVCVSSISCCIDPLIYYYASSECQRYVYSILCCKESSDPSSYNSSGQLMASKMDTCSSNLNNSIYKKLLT
Description: In Vitro Thrombin Receptor Binding Assay
CHRF membranes (Jones, Biochim. Biophys. Acta 1992, 1136, 272) are thawed from −70° C., centrifuged at maximum speed for 5 min, washed twice with binding buffer (50 mM HEPES containing 5 mM MgCl2 and 0.1% BSA), and re-suspended in binding buffer (25 μg/[…]). 100 μL of membranes are added to the 24-Wallac plates and delivered to the Tomtech apparatus. In a typical experiment, 6 μL of samples (from a 125 μg/mL intermediary plate, 20% DMSO) and 44 μL buffer are delivered to the plates (final conc. of compounds is 3.7 μg/mL, 0.6% DMSO). Similarly, 6 μL 20% DMSO and 44 μL buffer are delivered to both column 1 (NSB) and column 12 (TB). […] Ser-pFPhe-Har-Leu-Har-Lys-Tyr-NH2 (SEQ. ID. No. 2) (721-40; 500 μM in deionized water) is added to column 1. 50 μL tritiated 721-40 (specific activity 46 Ci/mmol) is added to all the wells. The plates are mixed well for 20 seconds, incubated for 30 min, and then harvested with 10 mM HEPES/138 mM NaCl using the Skatron harvester. The filters (GF/C Brandel FPXLR 296) are presoaked 3 h in 0.5% polyethylenimine in HEPES/0.1M N-acetylglucosamine) are set in Saran™ wrap and dried for 3 min in the microwave, and placed in sample bags (Wallac 1450-432). 4.5 mL scintillation fluid (Wallac, Betaplate Scint 1205-440) is added. The bags are sealed, placed in filter cassettes (Wallac 1450-104), and analyzed on the microbeta counter.

[2] = system: platelet aggregation stimulated by thrombin (gel-filtered platelets); assay: In vitro inhibition of thrombin-induced gel-filtered platelet aggregation assay; type: cell-based; settings: thrombin-induced gel-filtered human platelet aggregation; agonist thrombin 50 μL of 1 unit/mL; read-out: IC50 (μM) Thr GFP Aggr
Description: In Vitro Inhibition Of Thrombin-Induced Gel-Filtered Platelet Aggregation Assay
The percentage of platelet aggregation is calculated as an increase in light transmission of compound-treated platelet concentrate vs. control-treated platelet concentrate. Human blood is obtained from drug free, normal donors in tubes containing 0.13M sodium citrate. Platelet rich plasma (PRP) is collected by centrifugation of whole blood at 200×g for 10 min at 25° C. The PRP (5 mL) is gel filtered through Sepharose 2B (bed volume 50 mL), and the platelet count is adjusted to 2×10^7 platelets per sample. The following constituents are added to a siliconized cuvette: concentrated platelet filtrate and Tyrode's buffer (0.14M NaCl, 0.0027M KCl, 0.012M NaHCO3, 0.76 mM Na2HPO4, 0.0055M glucose, 2 mg/mL BSA and 5.0 mM HEPES @ pH 7.4) in an amount equal to 350 μL, 50 μL of 20 mM calcium and 50 μL of the test compound. Aggregation is monitored in a BIODATA aggregometer for the 3 min following the addition of agonist (thrombin 50 μL of 1 unit/mL).

SMILES	IC50 [1] [µM]	IC50 [2] [µM]
NCC[C@H](NC(=O)[C@H](Cc1ccc(Cl)cc1)NC(=O)Nc1ccc2c(CN3CCCC3)nn(Cc3c(Cl)cccc3Cl)c2c1)C(=O)NCc1ccccc1 [Compound 2, Benzenepropanamide, N-[(1S)-3-amino-1-[[(phenylmethyl)amino]carbonyl]propyl]-α-[[[[[1-(2,6-dichlorophenyl)methyl]-3-(1-pyrrolidinylmethyl)-1H-indazol-6-yl]amino]carbonyl]amino]-4-chloro-, (αS)-]	20	0.26
C[C@@H](NC(=O)[C@H](CCN)NC(=O)[C@H](Cc1ccc(F)c(F)c1)NC(=O)Nc1ccc2c(CN3CCCC3)nn(Cc3c(Cl)cccc3Cl)c2c1)c1ccccc1 [Compound 4]	0.15	0.32
NCCNC(=O)[C@H](Cc1cccs1)NC(=O)[C@H](Cc1ccc(Cl)cc1)NC(=O)Nc1ccc2c(CN3CCCC3)nn(Cc3c(Cl)cccc3Cl)c2c1 [Compound 6]	5.8	0.3
NCC[C@H](NC(=O)[C@H](Cc1ccc(F)c(F)c1)NC(=O)Nc1ccc2c(CN3CCCC3)nn(Cc3c(Cl)cccc3Cl)c2c1)C(=O)NCc1ccccc1 [Compound 1, Benzenepropanamide, N-[(1S)-3-amino-1-[[(phenylmethyl)amino]carbonyl]propyl]-α-[[[[[1-(2,6-dichlorophenyl)methyl]-3-(1-pyrrolidinylmethyl)-1H-indazol-6-yl]amino]carbonyl]amino]-3,4-difluoro-,(αS)-]	0.04	0.31
NCCNC(=O)[C@H](Cc1ccncc1)NC(=O)[C@H](Cc1ccc(F)c(F)c1)NC(=O)Nc1ccc2c(CN3CCCC3)nn(Cc3c(Cl)cccc3Cl)c2c1 [Compound 3, L-Alaninamide, 3,4-difluoro-N-[[[1-[(2,6-dichlorophenyl)methyl]-3-(1-pyrrolidinylmethyl)-1H-indazol-6-yl]amino]carbonyl]-L-phenylalanyl-N-(2-aminoethyl)-3-(4-pyridinyl)-]	0.03	0.5
NCC[C@H](NC(=O)[C@H](Cc1ccc(F)c(F)c1)NC(=O)Nc1ccc2c(CN3CCCC3)nn(Cc3c(Cl)cccc3Cl)c2c1)C(=O)N[C@H](CO)c1ccccc1 [Compound 5]	0.32	0.66
